Measured values published in paper PMC7041978 (The Journal of Veterinary Medical Science, 2020).
Entries after “also recorded” stand apart in the source; their conditions may differ.

Tests used:
[1] = system: human foreskin fibroblasts (HFF); assay: Host cell cytotoxicity assay; type: cell-based; details: for Host cell inhibition (%): 10 µM compounds, HFF cells, 48 hr; for IC50: Homo sapiens, HFF, 48 h, read-out: IC50 for host cell
[2] = system: Toxoplasma gondii RH-2F strain; assay: Parasite growth assay; type: cell-based; details: for IC50 / inhibition at 10 µM: Toxoplasma gondii, 48 h; for IC50: read-out: IC50 for parasite growth; for inhibition at 10 µM: HFF, read-out: Parasite inhibition (%)
[3] = system: Toxoplasma gondii RH-2F intracellular tachyzoites; assay: Intracellular parasite growth assay; type: cell-based; details: added after 2-hr invasion, 48 hr
Toxoplasma gondii = details: cited from earlier work

Row | Compound | Host cell inhibition (%) [1] | IC50 [1] | IC50 [2] | inhibition at 10 µM [2] | Inhibition of intracellular parasite growth ([3]; 10 µM) | further results
1 | CC(C)=CC[C@H](O)C1=CC(=O)c2c(O)ccc(O)c2C1=O [Alkannin] | −0.3% | 5.4 µM | 1.3 µM | 86.9% |  | Host cell inhibition (%) ([1]; listed as alkannin): did not kill the host cells
2 | O=c1cc(-c2ccccc2)oc2cc(O)c(O)c(O)c12 [Baicalein] | 3.3% | > 50 µM | 5 µM | 80.1% | effectively inhibited the intracellular parasite growth | Inhibition of intracellular parasite growth ([3]; 10 µM, listed as baicalein): effectively inhibited intracellular parasite growth; Host cell inhibition (%) ([1]; listed as baicalein): did not kill the host cells
3 | COc1ccc2cc3[n+](cc2c1OC)CCc1cc2c(cc1-3)OCO2 [Berberine Chloride] | −3.0% | 2.8 µM | 2.2 µM | 85.5% |  | Host cell inhibition (%) ([1]; listed as berberine chloride): did not kill the host cells
4 | c1c2c(cc3c1OCO3)-c1cc3ccc4c(c3c[n+]1CC2)OCO4 [Coptisine Chloride] | 6.4% | > 50 µM | 2.1 µM | 73.3% |  | Host cell inhibition (%) ([1]; listed as coptisine chloride): did not kill the host cells; Dose dependence of parasite growth inhibition ([2]; high concentrations, data not shown): did not inhibit parasite growth in a dose-dependent manner
5 | O=c1cc(-c2ccc(O)c(O)c2)oc2cc(O)cc(O)c12 [Luteolin] |  | > 50 µM | 5.7 µM | 74.3% | effectively inhibited the intracellular parasite growth | 
6 | CCc1nc(N)nc(N)c1-c1ccc(Cl)cc1 [Pyrimethamine, reference compound] |  |  |  |  | inhibited the intracellular growth | Selectivity indexes (SI) (Toxoplasma gondii): 0.21
7 | CC(C)=CC[C@@H](O)C1=CC(=O)c2c(O)ccc(O)c2C1=O [Shikonin] | 43.4% | 17.8 µM | 1.4 µM | 87.3% |  | Host cell inhibition (%) ([1]; listed as shikonin): did not kill the host cells; also recorded: killed some of the host cells
8 | C[C@H]1CC[C@@]2(OC1)O[C@H]1C[C@H]3[C@@H]4CC[C@@H]5C[C@@H](O[C@@H]6O[C@H](CO)[C@H](O)[C@H](O)[C@H]6O[C@@H]6O[C@H](CO)[C@@H](O)[C@H](O)[C@H]6O)CC[C@]5(C)[C@H]4CC[C@]3(C)[C@H]1[C@@H]2C [Timosaponin A-III] | 98.3% |  |  | 81.4% |  | Host cell inhibition (%) ([1]; listed as timosaponin A-III): killed almost all of the host cells
9 | Nc1ccc(S(=O)(=O)Nc2ncccn2)cc1 [sulphadiazine] |  |  |  |  |  | Selectivity indexes (SI) (Toxoplasma gondii): 0.29
10 | dextran sulfate [reference compound] |  |  |  |  |  | Inhibition of intracellular parasite growth ([3]; 25 mg/ml): hardly affected the intracellular parasites
